Patent US20240109900A1, “AZABICYCLIC SHP2 INHIBITORS” (IRBM S.P.A., priority 2021, published 2024)

Assays:
[1] = system: ERK phosphorylation in KYSE-520 cells; test: Phospho-ERK cellular assay; format: cell-based; conditions: Homo sapiens, KYSE-520, 2 h, KYSE-520 cells, 2 h at 37° C., phospho-ERK1/2 (Thr202/Tyr204) TR-FRET; read-out: PERK IC50
Experimental: ERK phosphorylation was detected using the “Advanced phospho-ERK1/2 (Thr202/Tyr204)” TR-FRET kit (Cisbio, Cat #64AERPEG/H), following the manufacturer reagents and instructions.
Briefly, 20.000/well KYSE-520 cells (DSMZ ACC 371) were plated in 6 μL RPMI-1640 (Invitrogen) growth medium, into 384 white low-volume high base TC microplates (Greiner). After an overnight incubation, cells were treated with DMSO serial diluted compounds and incubated for 2 h at 37° C. After incubation, 2 μL/well of 4×Lysis Buffer (Cisbio 64KL1FDF), were added and incubated with cells for 30 min on gentle shaking. Finally, lysates were added with 2 μL/well of Eu cryptate (donor) and D2 (acceptor) conjugated antibodies (as provided by the Cisbio kit #64AERPEG/H) diluted 1:100 in Detection Buffer (as provided by the Cisbio kit #64AERPEG/H). Plates were then sealed and incubated at room temperature in the dark. After an overnight incubation, the TR-FRET signal was detected on a suitable reader (Envision, PerkinElmer). The lower the TR-FRET signal the higher the higher the SHP2 inhibition in cells.
The activity of each compound dilution was calculated as percentage between vehicle DMSO treated cells and no cells, 0% inhibition and 100% inhibition respectively. The percentage activity is fitted against the compound dilutions with a four-parameter logistic regression. The inflection point (i.e. the concentration at which half-maximal inhibition is achieved) is the IC50.

[2] = target: SHP-2 enzyme (Met1-Leu525) (Homo sapiens (Human), UniProt Q06124); test: SHP2 inhibition enzymatic assay; format: biochemical; conditions: 0.5 nM SHP-2 activated by 500 nM IRS1 peptide, 75 μM DiFMUP substrate; read-out: SHP2wt-IC50
Experimental: The assay was performed as described in YP Chen et al, Nature (535)2016. Assay volume of 20 μL/well was assembled in 384 well black polystyrene low-binding microplates (Greiner), using the following buffer: 60 mM HEPES pH 7.2, 75 mM NaCl, 75 mM KCl, 1 mM EDTA pH 8, 0.05% tween-20, 5 mM DTT. The SHP-2 enzyme (synthetized by Origene, Met1-Leu525, cat #TP750155) was used at a final concentration of 0.5 nM. The enzyme was activated by 500 nM IRS1 peptide (sequence: H2N-LN(pY)IDLDLV(dPEG8)LST(pY)ASINFQK-amide SEQ ID No. 1) and incubated with 75 μM DiFMUP (Sigma) as substrate.
Briefly, DMSO serially diluted testing compounds were transferred to the bottom of the assay plate. SHP2 was then added together with the IRS1 peptide. 30 min post incubation, the DiFMUP substrate was added to the reaction and incubated 30 min at room temperature. Finally 5 μL of 160 μM bpV (Potassium bisperoxo[1,10-phenanthroline]oxovanadate [V], Sigma) were added to stop and quench the reaction. The fluorescence was detected by a microplate reader (Envision, PerkinElmer) according to the DiFMUP excitation and emission wavelength. The lower the fluorescence the higher the SHP2 inhibition. […] The percentage inhibition is fitted against the compound dilutions with a four-parameter logistic regression. The inflection point (i.e. the concentration at which half-maximal inhibition is achieved) is the IC50.

SHP-2 enzyme (Met1-Leu525), sequence (Q06124 1-525): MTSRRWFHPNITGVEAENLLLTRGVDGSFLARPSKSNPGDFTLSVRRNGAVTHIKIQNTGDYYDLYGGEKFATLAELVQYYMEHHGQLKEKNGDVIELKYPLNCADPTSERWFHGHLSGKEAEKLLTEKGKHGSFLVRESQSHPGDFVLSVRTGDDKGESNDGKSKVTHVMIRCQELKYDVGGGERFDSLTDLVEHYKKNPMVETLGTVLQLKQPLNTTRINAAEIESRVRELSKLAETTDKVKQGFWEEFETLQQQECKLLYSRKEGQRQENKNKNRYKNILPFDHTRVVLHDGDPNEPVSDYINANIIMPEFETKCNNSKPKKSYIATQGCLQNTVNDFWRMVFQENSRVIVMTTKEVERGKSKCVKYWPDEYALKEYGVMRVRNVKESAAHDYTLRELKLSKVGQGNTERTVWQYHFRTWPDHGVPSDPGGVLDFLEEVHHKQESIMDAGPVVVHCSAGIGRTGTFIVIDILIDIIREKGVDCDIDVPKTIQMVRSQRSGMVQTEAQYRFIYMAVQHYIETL

IC50 [1] [µM] | IC50 [2] [µM] | SMILES
< 1 | < 0.5 | Cc1cc([C@@]2(CN)[C@@H]3CCN(c4cnc5c(-c6ccnc7ncccc67)n[nH]c5n4)C[C@@H]32)no1 [Example 38, ((1S,6R,7S)-3-(3-(1,8-naphthyridin-4-yl)-1H-pyrazolo[3,4-b]pyrazin-6-yl)-7-(5-methylisoxazol-3-yl)-3-azabicyclo[4.1.0]heptan-7-yl)methanamine]
< 1 | < 0.5 | Cc1cc([C@@]2(CN)[C@@H]3CCN(c4cnc5c(-c6ccnc7ccc(F)cc67)n[nH]c5n4)C[C@@H]32)no1 [Example 39, ((1S,6R,7S)-3-(3-(6-fluoroquinolin-4-yl)-1H-pyrazolo[3,4-b]pyrazin-6-yl)-7-(5-methylisoxazol-3-yl)-3-azabicyclo[4.1.0]heptan-7-yl)methanamine]
< 1 | < 0.5 | Cc1cc([C@@]2(CN)[C@@H]3CCN(c4cnc5c(-c6cccc7c6OCCO7)n[nH]c5n4)C[C@@H]32)no1 [Example 40, ((1S,6R,7S)-3-(3-(2,3-dihydrobenzo[b][1,4]dioxin-5-yl)-1H-pyrazolo[3,4-b]pyrazin-6-yl)-7-(5-methylisoxazol-3-yl)-3-azabicyclo[4.1.0]heptan-7-yl)methanamine]
< 1 | < 0.5 | Cc1cc([C@@]2(CN)[C@@H]3CCN(c4cnc5c(-c6ccnc7cccc(F)c67)n[nH]c5n4)C[C@@H]32)no1 [Example 41, ((1S,6R,7S)-3-(3-(5-fluoroquinolin-4-yl)-1H-pyrazolo[3,4-b]pyrazin-6-yl)-7-(5-methylisoxazol-3-yl)-3-azabicyclo[4.1.0]heptan-7-yl)methanamine]
1 to 5 | 0.5 to 3 | Cc1cc([C@@]2(CN)[C@@H]3CCN(c4cnc5c(-c6ccnc7ccc(Cl)cc67)n[nH]c5n4)C[C@@H]32)no1 [Example 42, ((1S,6R,7S)-3-(3-(6-chloroquinolin-4-yl)-1H-pyrazolo[3,4-b]pyrazin-6-yl)-7-(5-methylisoxazol-3-yl)-3-azabicyclo[4.1.0]heptan-7-yl)methanamine]
< 1 | < 0.5 | Cc1cc([C@@]2(CN)[C@@H]3CCN(c4cnc5c(-c6ccc(C(F)(F)F)c7ncccc67)n[nH]c5n4)C[C@@H]32)no1 [Example 43, ((1S,6R,7S)-7-(5-methylisoxazol-3-yl)-3-(3-(8-(trifluoromethyl)quinolin-5-yl)-1H-pyrazolo[3,4-b]pyrazin-6-yl)-3-azabicyclo[4.1.0]heptan-7-yl)methanamine]
< 1 | < 0.5 | Cc1cc([C@@]2(CN)[C@@H]3CCN(c4cnc5c(-c6ccc7nn(C)c(Cl)c7c6Cl)n[nH]c5n4)C[C@@H]32)no1 [Example 44, ((1S,6R,7S)-3-(3-(3,4-dichloro-2-methyl-2H-indazol-5-yl)-1H-pyrazolo[3,4-b]pyrazin-6-yl)-7-(5-methylisoxazol-3-yl)-3-azabicyclo[4.1.0]heptan-7-yl)methanamine]

Continued, compound first:

SMILES | IC50 [1] [µM] | IC50 [2] [µM]
Cc1ccc2c(-c3n[nH]c4nc(N5CCC6C(C5)C6(CN)c5cc(C)on5)cnc34)cccc2n1 (stereo not shown) [Example 25, (7-(5-methylisoxazol-3-yl)-3-(3-(2-methylquinolin-5-yl)-1H-pyrazolo[3,4-b]pyrazin-6-yl)-3-azabicyclo[4.1.0]heptan-7-yl)methanamine] | < 1 | < 0.5
Cc1cc(C2(CN)C3CCN(c4cnc5c(-c6cccc7nn(C)cc67)n[nH]c5n4)CC32)no1 (stereo not shown) [Example 26, (3-(3-(2-methyl-2H-indazol-4-yl)-1H-pyrazolo[3,4-b]pyrazin-6-yl)-7-(5-methylisoxazol-3-yl)-3-azabicyclo[4.1.0]heptan-7-yl)methanamine] | < 1 | < 0.5
Cc1cc(C2(CN)C3CCN(c4cnc5c(-c6ccnc7ccccc67)n[nH]c5n4)CC32)no1 (stereo not shown) [Example 27, (7-(5-methylisoxazol-3-yl)-3-(3-(quinolin-4-yl)-1H-pyrazolo[3,4-b]pyrazin-6-yl)-3-azabicyclo[4.1.0]heptan-7-yl)methanamine] | < 1 | < 0.5
COc1ncccc1-c1n[nH]c2nc(N3CCC4C(C3)C4(CN)c3cc(C)on3)cnc12 (stereo not shown) [Example 28, (3-(3-(2-methoxypyridin-3-yl)-1H-pyrazolo[3,4-b]pyrazin-6-yl)-7-(5-methylisoxazol-3-yl)-3-azabicyclo[4.1.0]heptan-7-yl)methanamine] | > 5 | < 0.5
Cc1cc(C2(CN)C3CCN(c4cnc5c(-c6ccnc7c6OC[C@@H]6CCCN76)n[nH]c5n4)CC32)no1 (stereo partly drawn) [Example 29, (7-(5-methylisoxazol-3-yl)-3-(3-((S)-6a,7,8,9-tetrahydro-6H-pyrido[3,2-b]pyrrolo[1,2-d][1,4]oxazin-4-yl)-1H-pyrazolo[3,4-b]pyrazin-6-yl)-3-azabicyclo[4.1.0]heptan-7-yl)methanamine] | > 5 | 0.5 to 3
Cc1cc(C2(CN)C3CCN(c4cnc5c(-c6ccc(F)c7ncccc67)n[nH]c5n4)CC32)no1 (stereo not shown) [Example 30, (3-(3-(8-fluoroquinolin-5-yl)-1H-pyrazolo[3,4-b]pyrazin-6-yl)-7-(5-methylisoxazol-3-yl)-3-azabicyclo[4.1.0]heptan-7-yl)methanamine] | < 1 | < 0.5
Cc1cc(C2(CN)C3CCN(c4cnc5c(-c6ccnc(Cl)c6Cl)n[nH]c5n4)CC32)no1 (stereo not shown) [Example 31, (3-(3-(2,3-dichloropyridin-4-yl)-1H-pyrazolo[3,4-b]pyrazin-6-yl)-7-(5-methylisoxazol-3-yl)-3-azabicyclo[4.1.0]heptan-7-yl)methanamine] | < 1 | < 0.5
Cc1cc(C2(CN)C3CCN(c4cnc5c(-c6ccc(C#N)c7ncccc67)n[nH]c5n4)CC32)no1 (stereo not shown) [Example 32, 5-(6-(7-(aminomethyl)-7-(5-methylisoxazol-3-yl)-3-azabicyclo[4.1.0]heptan-3-yl)-1H-pyrazolo[3,4-b]pyrazin-3-yl)quinoline-8-carbonitrile] | < 1 | < 0.5
Cc1cc(C2(CN)C3CCN(c4cnc5c(-c6ccc(Cl)c7ncccc67)n[nH]c5n4)CC32)no1 (stereo not shown) [Example 33, (3-(3-(8-chloroquinolin-5-yl)-1H-pyrazolo[3,4-b]pyrazin-6-yl)-7-(5-methylisoxazol-3-yl)-3-azabicyclo[4.1.0]heptan-7-yl)methanamine] | < 1 | < 0.5
Cc1cc(C2(CN)C3CCN(c4cnc5c(-c6ccc(Cl)c7cnccc67)n[nH]c5n4)CC32)no1 (stereo not shown) [Example 34, (3-(3-(8-chloroisoquinolin-5-yl)-1H-pyrazolo[3,4-b]pyrazin-6-yl)-7-(5-methylisoxazol-3-yl)-3-azabicyclo[4.1.0]heptan-7-yl)methanamine] | < 1 | < 0.5
Cc1cc(C2(CN)C3CCN(c4cnc5c(-c6ccnc7cccnc67)n[nH]c5n4)CC32)no1 (stereo not shown) [Example 35, (3-(3-(1,5-naphthyridin-4-yl)-1H-pyrazolo[3,4-b]pyrazin-6-yl)-7-(5-methylisoxazol-3-yl)-3-azabicyclo[4.1.0]heptan-7-yl)methanamine] | 1 to 5 | 0.5 to 3
Cc1cc(C2(CN)C3CCN(c4cnc5c(-c6ccnc(N)c6Cl)n[nH]c5n4)CC32)no1 (stereo not shown) [Example 36, 4-(6-(7-(aminomethyl)-7-(5-methylisoxazol-3-yl)-3-azabicyclo[4.1.0]heptan-3-yl)-1H-pyrazolo[3,4-b]pyrazin-3-yl)-3-chloropyridin-2-amine] | < 1 | < 0.5
Cc1cc([C@@]2(CN)[C@@H]3CCN(c4cnc5c(-c6ccc7c(c6)OC(F)(F)O7)n[nH]c5n4)C[C@@H]32)no1 [Example 37, ((1S,6R,7S)-3-(3-(2,2-difluorobenzo[d][1,3]dioxol-5-yl)-1H-pyrazolo[3,4-b]pyrazin-6-yl)-7-(5-methylisoxazol-3-yl)-3-azabicyclo[4.1.0]heptan-7-yl)methanamine] | 1 to 5 | < 0.5
